Measured values reported in the NIST ThermoML archive (doi:10.1021/je034087q).

Assay: xn = mol fraction of the nth substance listed
Settings: 323.15 K, Fluid (supercritical or subcritical phases)

CCCCC [pentane] + O=C=O
Settings | mass density [kg/m3]
2770 kPa, x2 = 0.214 | 612
3730 kPa, x2 = 0.36 | 633
3800 kPa, x2 = 0.214 | 617
4510 kPa, x2 = 0.36 | 635
5380 kPa, x2 = 0.36 | 636
5920 kPa, x2 = 0.214 | 623
6240 kPa, x2 = 0.36 | 640
6870 kPa, x2 = 0.671 | 707
7170 kPa, x2 = 0.36 | 643
7390 kPa, x2 = 0.791 | 655
7500 kPa, x2 = 0.671 | 713
7530 kPa, x2 = 0.214 | 627
7770 kPa, x2 = 0.791 | 663
8020 kPa, x2 = 0.87 | 577
8150 kPa, x2 = 0.36 | 645
8150 kPa, x2 = 0.87 | 584
8220 kPa, x2 = 0.916 | 454
8230 kPa, x2 = 0.916 | 458
8240 kPa, x2 = 0.916 | 460
8240 kPa, x2 = 0.939 | 352
8260 kPa, x2 = 0.87 | 590
8270 kPa, x2 = 0.916 | 468
8270 kPa, x2 = 0.939 | 356
8280 kPa, x2 = 0.791 | 670
8290 kPa, x2 = 0.939 | 358
8310 kPa, x2 = 0.939 | 361
8320 kPa, x2 = 0.916 | 475
8330 kPa, x2 = 0.939 | 363
8370 kPa, x2 = 0.671 | 719
8370 kPa, x2 = 0.916 | 483
8380 kPa, x2 = 0.939 | 368
8390 kPa, x2 = 0.901 | 515
8410 kPa, x2 = 0.916 | 491
8420 kPa, x2 = 0.87 | 597
8420 kPa, x2 = 0.939 | 375
8430 kPa, x2 = 0.901 | 520
8450 kPa, x2 = 0.916 | 499
8460 kPa, x2 = 0.901 | 524
8460 kPa, x2 = 0.939 | 380
8500 kPa, x2 = 0.901 | 529
8500 kPa, x2 = 0.916 | 508
8500 kPa, x2 = 0.939 | 386
8530 kPa, x2 = 0.901 | 533
8540 kPa, x2 = 0.939 | 393
8550 kPa, x2 = 0.87 | 602
8570 kPa, x2 = 0.901 | 538
8570 kPa, x2 = 0.916 | 517
8570 kPa, x2 = 0.939 | 399
8620 kPa, x2 = 0.901 | 542
8620 kPa, x2 = 0.939 | 406
8650 kPa, x2 = 0.916 | 527
8660 kPa, x2 = 0.939 | 413
8670 kPa, x2 = 0.901 | 548
8700 kPa, x2 = 0.939 | 420
8710 kPa, x2 = 0.87 | 610
8710 kPa, x2 = 0.901 | 552
8710 kPa, x2 = 0.916 | 536
8740 kPa, x2 = 0.939 | 428
8760 kPa, x2 = 0.901 | 558
8810 kPa, x2 = 0.916 | 546
8810 kPa, x2 = 0.939 | 436
8830 kPa, x2 = 0.901 | 562
8850 kPa, x2 = 0.939 | 444
8860 kPa, x2 = 0.791 | 681
8890 kPa, x2 = 0.901 | 568
8890 kPa, x2 = 0.939 | 453
8920 kPa, x2 = 0.87 | 619
8930 kPa, x2 = 0.916 | 556
8950 kPa, x2 = 0.939 | 461
8980 kPa, x2 = 0.901 | 573
9010 kPa, x2 = 0.939 | 470
9050 kPa, x2 = 0.901 | 579
9070 kPa, x2 = 0.916 | 568
9070 kPa, x2 = 0.939 | 479
9120 kPa, x2 = 0.87 | 624
9140 kPa, x2 = 0.901 | 583
9140 kPa, x2 = 0.939 | 489
9210 kPa, x2 = 0.939 | 500
9230 kPa, x2 = 0.901 | 590
9240 kPa, x2 = 0.916 | 579
9280 kPa, x2 = 0.36 | 647
9300 kPa, x2 = 0.939 | 511
9350 kPa, x2 = 0.901 | 595
